Test results reported in paper PMC10051705, “Leishmanicidal Activity of Guanidine Derivatives against Leishmania infantum” (Tropical Medicine and Infectious Disease, 2023).
Marks after values point to notes of the source that are not given here.

How the values were obtained:
[1] = system: L. infantum promastigotes; test: promastigote growth inhibition assay (MTT); assay type: cell-based; conditions: Leishmania infantum, 72 h, 26 °C
Procedure: The promastigote forms of Leishmania (Leishmania) infantum [IOC/L0579(MHOM/BR/1974/PP75)] were cultured in Schneider’s medium, pH 7.0, supplemented with 20% heat-inactivated fetal bovine serum (FBS), 2% male human urine, 100 U/mL of penicillin, and 100 mg/L of streptomycin, and the parasites were maintained at 26 °C. The procedure to obtain the extracellular axenic amastigote form of L. infantum was based on methods previously described that were modified using a Schneider medium readjusted to pH 5.5 at 37 °C. The culture of promastigote forms in the stationary phase was centrifuged, and the medium of these cells was replaced and differentiated into axenic amastigotes by temperature and medium pH changes. Parasites were maintained in culture for no more than 20 passages.
The promastigote growth inhibition assay was performed as previously described. Promastigotes were harvested during the exponential growth phase. They were incubated in the presence and absence of several concentrations of LQOFG-2, LQOFG-6, LQOFG-7 (500 to 7.8 µM), and AmB (10 to 0.078 µM) as the positive control. The plate was incubated at 26 °C for 72 h in a biological oxygen demand (B.O.D.) incubator using a Schneider’s medium (Schneider’s Insect Medium 24.5 g/L; L-glutamine 1.8 g/L; glucose 2 g/L and sodium bicarbonate 0.4 g/L; Sigma-Aldrich—St. Louis—USA) supplemented. The growth inhibition was evaluated using an MTT assay kit (Amresco, Solon, OH, USA) according to the manufacturer’s protocol. After 4 h of incubation, 10% sodium dodecyl sulfate was added to dissolve the formazan crystals. The absorbance (540 nm) was measured using a plate reader (Biosystems model ELx800; Curitiba, PR, Brazil). […] Three independent experiments we performed in triplicate.

[2] = system: L. infantum axenic amastigotes; test: axenic amastigote inhibition assay (MTT); assay type: cell-based; conditions: Leishmania infantum, 24 h; for EC50: 37 °C, pH 5.5, MTT; for inhibition at 31.2 µM: read-out: inhibition of axenic amastigotes compared to the control (untreated)
[3] = system: human red blood cells; test: red blood cell lysis assay; assay type: cell-based; conditions: 1 h, 37 °C
Procedure: The hemolytic activities of guanidine compounds were measured using human red blood cells from healthy adults (n = 3) according to methods previously described. Briefly, 80 µL of a 5% erythrocyte/phosphate-buffered saline (PBS) suspension was mixed with 20 µL of LQOFG-2, LQOFG-6, LQOFG-7, (1000 to 7.8 µM), and AmB (100 to 0.78 µM). After incubation at 37 °C for 1 h, 200 µL of PBS (1.5 mM KH2PO4, 8.1 mM Na2HPO4, 136.9 mM NaCl, and 2.6 mM KCl, pH 7.2) was added to stop the hemolysis process, and the samples were centrifuged for 10 min at 1000× g. The supernatants were collected, and the extent of hemolysis was measured spectrophotometrically at 540 nm. The hemolysis percentage was determined as [(Abssam − Abscon)/(Abstot − Abscon) × 100], where Abssam is the absorbance of the sample, Abscon is the absorbance of the blank control (without drugs), and Abstot is the absorbance of total hemolysis (replacing the sample solution with an equal volume of ultrapure water (Direct-Q UV®, Guyancourt, France)).

[4] = in vitro cytotoxicity in PBMC (MTT); assay type: cell-based, human; conditions: both sexes, human, peripheral blood mononuclear cells (PBMCs), human PBMC, 24 h, MTT
Procedure: (§1) In vitro cytotoxicity was evaluated using peripheral blood mononuclear cells (PBMCs) collected from three healthy volunteers (2 males, mean age 33; and 1 person). PBMCs were separated by density gradient using Ficoll Paque PLUS (GE Healthcare, USA), pelleted by centrifugation (400× g for 40 min), and resuspended in RPMI 1640 medium, then supplemented with 10% fetal bovine serum and 1% antibiotic solution (penicillin 5000 Units/mL + streptomycin 5000 μg/mL). After 24 h of treatment, cell viability was evaluated by the modified colorimetric method based on the tetrazolium dye MTT (3-(4,5-dimethylthiazol-2-yl)-2,5- diphenyltetrazolium bromide). The MTT assay was used for in vitro cytotoxicity as previously described with the following modifications: cells were exposed to serially diluted concentrations of LQOFG-2, LQOFG-6, LQOFG-7 (1000 to 7.8 µM), and AmB (100 to 0.78 µM). The plates were kept at 37 °C for 24 h. MTT (5 mg/mL) was added and incubated for 4 h at 37 °C, after which the plates were centrifuged, the supernatant was discarded, and DMSO was added, leaving the plates under stirring to solubilize the formazan salts. Absorbance was measured at 540 nm using a plate reader (ELx800; Curitiba, PR, Brazil). The mean percentage of viable cells was calculated relative to the untreated control.

[5] = system: peripheral blood mononuclear cells (PBMCs); test: in vitro cytotoxicity in PBMC (MTT); assay type: cell-based, human; conditions: CC50 PBMC / EC50 axenic amastigotes
Procedure: as §1

[6] = system: L. infantum promastigotes; test: apoptosis/necrosis profiling, annexin V/PI staining, promastigotes; assay type: cell-based, Leishmania infantum
Procedure: (§2) To evaluate both apoptosis and necrosis, promastigote forms of L. infantum in the log phase of growth were incubated at several concentrations based on the IC50 values of LQOFG-2 (6.35; 12.7, 25.4, and 50.8 µM) LQOFG-6 (12.2, 24.4, 48.8 and 97.6 µM), and LQOFG-7 (11.65, 23.3, 46.6 and 93.2 µM), and AmB (1.5 and 6 µM) was used as the positive control. The plates were incubated for 24 h at 26 °C ± 1 °C in a B.O.D. incubator. After incubation, the promastigotes were washed three times in cold PBS, resuspended in binding buffer (10-mM HEPES, 140-mM NaCl, and 2.5-mM CaCl2, pH 7.4), and stained using a FITC Annexin V/Dead Cell Apoptosis Kit (BD Biosciences, San Jose, CA, USA) according to the manufacturer’s instructions. The stained cells were diluted and suspended in an Annexin V binding buffer (BD Biosciences, San Jose, CA, USA). Annexin V-FITC/propidium iodide (PI)-stained cells were analyzed using a BD FACSCanto II flow cytometer (BD Biosciences, San Jose, CA, USA). The raw data were analyzed using FlowJo 10.0.7 software (TreeStar Inc., Ashland, OR, USA).

[7] = system: L. infantum axenic amastigotes; test: apoptosis/necrosis profiling, annexin V/PI staining, axenic amastigotes; assay type: cell-based, Leishmania infantum
Procedure: as §2
To evaluate both apoptosis and necrosis of the amastigote-like forms of L. infantum, the protocol was followed. In each well, amastigotes were treated with the guanidine compounds and controls.

IC50 [1] [µM] | EC50 [2] [µM] | SMILES | inhibition at 31.2 µM [2] [%] | HC50, toxicity to red blood cells [3] [µM] | CC50 at 24 h [4] [µM] | SI (CC50/EC50) [5] | % cells, Early Apoptosis (AV+, PI−) ([6]; 0.5× IC50, 24 h) [%] | % cells, Late Apoptosis (AV+, PI+) ([6]; 0.5× IC50, 24 h) [%] | % cells, Necrosis (AV−, PI+) ([6]; 0.5× IC50, 24 h) [%] | % cells, Early Apoptosis (AV+, PI−) ([6]; 1× IC50, 24 h) [%] | % cells, Late Apoptosis (AV+, PI+) ([6]; 1× IC50, 24 h) [%] | % cells, Necrosis (AV−, PI+) ([6]; 1× IC50, 24 h) [%] | % cells, Early Apoptosis (AV+, PI−) ([6]; 2× IC50, 24 h) [%] | % cells, Late Apoptosis (AV+, PI+) ([6]; 2× IC50, 24 h) [%] | % cells, Early Apoptosis (AV+, PI−) ([6]; 4× IC50, 24 h) [%] | % cells, Late Apoptosis (AV+, PI+) ([6]; 4× IC50, 24 h) [%] | % cells, Early Apoptosis (AV+, PI−) ([7]; 0.5 × EC50, 24 h) | % cells, Late Apoptosis (AV+, PI+) ([7]; 0.5 × EC50, 24 h) | % cells, Early Apoptosis (AV+, PI−) ([7]; 1 × EC50, 24 h) | % cells, Late Apoptosis (AV+, PI+) ([7]; 1 × EC50, 24 h) | also measured
24.4 ± 0.76 | 21.1 ± 1.13 | CC(C)(C)c1ccc(N/C(=N\C(=O)c2ccccc2)NCc2ccccc2)cc1 [LQOFG-6, (Z)-N-((benzylamine)((4-(tert-butyl)phenyl)amino)methylene)benzamide] | 59.9 | >1000 | > 1000 | >47.4 | 0.65 ± 0.19 | 0.18 ± 0.01 | 0.85 ± 0.09 | 0.46 ± 0.13 | 0.20 ± 0.03 | 1.47 ± 0.21 | 0.51 ± 0.08 | 0.32 ± 0.06 | 0.91 ± 0.34 | 0.20 ± 0.03 | 3.62 ± 0.39% | 17.10 ± 0.80% | 4.05 ± 0.22% | 20.00 ± 1.74% | % cells, Necrosis (AV−, PI+) ([7]; 1 × EC50, 24 h): 6.57 ± 1.20%; % cells, Early Apoptosis (AV+, PI−) ([7]; 2 × EC50, 24 h): 5.72 ± 0.20 ^a %; % cells, Late Apoptosis (AV+, PI+) ([7]; 2 × EC50, 24 h): 25.50 ± 0.80%; % cells, Necrosis (AV−, PI+) ([7]; 2 × EC50, 24 h): 7.15 ± 0.21%; % cells, Early Apoptosis (AV+, PI−) ([7]; 4 × EC50, 24 h): 9.06 ± 0.70 ^d %; % cells, Late Apoptosis (AV+, PI+) ([7]; 4 × EC50, 24 h): 45.47 ± 1.30 ^d %; % cells, Necrosis (AV−, PI+) ([7]; 4 × EC50, 24 h): 8.14 ± 0.78%
12.7 ± 0.25 | 26.1 ± 1.22 | O=C(/N=C(/NCc1ccccc1)Nc1ccc(Br)cc1)c1ccccc1 [LQOFG-2, (Z)-N-((benzylamine)((4-bromophenyl)amino)methylene)benzamide] | 57.7 | >1000 | 313 ± 3.23 | 12.00 | 0.27± 0.09 | 0.55 ± 0.04 | 1.69 ± 0.28 | 0.12 ± 0.02 | 0.41 ± 0.14 | 2.07 ± 0.23 | 0.35 ± 0.01 | 0.78 ± 0.15 | 0.34 ± 0.09 | 0.63 ± 0.12 | 5.68 ± 0.29 ^a % | 31.43 ± 0.03 ^b % | 8.13 ± 0.84 ^d % | 33.23 ± 0.73 ^c % | % cells, Necrosis (AV−, PI+) ([6]; 2× IC50, 24 h): 1.52 ± 0.24%; % cells, Necrosis (AV−, PI+) ([6]; 4× IC50, 24 h): 1.79 ± 0.59%; % cells, Necrosis (AV−, PI+) ([7]; 0.5 × EC50, 24 h): 13.20 ± 1.62%; % cells, Necrosis (AV−, PI+) ([7]; 1 × EC50, 24 h): 11.97 ± 0.66%; % cells, Early Apoptosis (AV+, PI−) ([7]; 2 × EC50, 24 h): 7.68 ± 0.39 ^d %; % cells, Late Apoptosis (AV+, PI+) ([7]; 2 × EC50, 24 h): 56.27 ± 1.51 ^d %; % cells, Necrosis (AV−, PI+) ([7]; 2 × EC50, 24 h): 15.93 ± 1.02%; % cells, Early Apoptosis (AV+, PI−) ([7]; 4 × EC50, 24 h): 7.55 ± 1.18 ^d %; % cells, Late Apoptosis (AV+, PI+) ([7]; 4 × EC50, 24 h): 67.50 ± 2.05 ^d %; % cells, Necrosis (AV−, PI+) ([7]; 4 × EC50, 24 h): 13.80 ± 1.47%
